Test results: ChEMBL document CHEMBL1240427, “Chemistry around imidazopyrazine and ibuprofen: discovery of novel fatty acid amide hydrolase (FAAH) inhibitors” (Eur J Med Chem, 2010)

System: Caco-2
Assay: Effect in human Caco-2 cells assessed as IL-1-beta-induced IL8 production relative to control at 5 uM after 24 hrs by ELISA
Details: Caco-2, 24 h

Row | SMILES | level, % of control at 5 µM [%]
1 | N=c1c(-c2ccccc2)nc2c[nH]c(-c3ccc(O)cc3)cn1-2 | 75

System: Caco-2
Assay: Effect in human Caco-2 cells assessed as IL-1-beta-induced IL8 production relative to control at 50 uM after 24 hrs by ELISA
Details: Caco-2, 24 h

Row | SMILES | level, % of control at 50 µM [%]
2 | N=c1c(-c2ccccc2)nc2c[nH]c(-c3ccc(O)cc3)cn1-2 | 56
3 | Oc1ccc(-c2cn3c(O)c(-c4ccccc4)nc3cn2)cc1 | 65
4 | CC(C)Cc1ccc(C(C)C(=O)CCl)cc1 (configuration not stated) | 70
5 | CC(C)Cc1ccc(C(C)C(=O)/C=N/O)cc1 (configuration not stated) | 290
6 | CON(C)C(=O)C(C)c1ccc(CC(C)C)cc1 (configuration not stated) | 55
7 | CC(C)Cc1ccc(C(C)C(=O)n2nnc3ccccc32)cc1 (configuration not stated) | 76
